Experimental data published in patent publication US20220401564A1 (DANA-FARBER CANCER INSTITUTE, INC., priority 2019, published 2022).

What was measured:
HDAC1 = biological target: T1, HDAC1 (Homo sapiens, UniProt Q13547); experiment: HDAC enzymatic assay (Reaction Biology), fluorogenic substrate; type: biochemical
T1 construct: purchased Reaction Biology
Experimental: (§1) Compounds 2 and 9 were tested in an enzymatic assay from Reaction Biology® against HDAC isoforms.
(§2) Base Reaction buffer: 50 mM Tris-HCl, pH8.0, 137 mM NaCl, 2.7 mM KCl, and 1 mM MgCl2. Add fresh: 1 mg/ml BSA, 1% DMSO
(§3) Fluorogenic HDAC General Substrate (HDAC1, HDAC2, HDAC3, HDAC6, HDAC10, and HDAC11): 50 μM, Arg-His-Lys-Lys(Ac)-AMC
(§4) 1. Delivered 2X enzyme in wells of reaction plate except in the control wells and added buffer to control wells. 2. Delivered compounds in 100% DMSO into the enzyme mixture by Acoustic technology (Echo550; nanoliter range). Spin down and pre-incubation. 3. Delivered 2X Substrate Mixture (Fluorogenic HDAC Substrate and co-factor if applicable) in all reaction wells to initiate the reaction. Spin and shake. 4. Incubated for 30 min for Class 2A, 1 h for HDAC1, 2, 3, and 6, and 2 h for the rest of HDAC isoforms and SIRTs at 30° C. with seal.
(§5) 5. Added Developer with Trichostatin A (or Nicotinamide for SIRTs) to stop the reaction and to generate fluorescent color. 6. The fluorescence that was generated was detected with excitation (Ex) at […] and emission (Em) at 460 nM by the EnVision Multilabel Plate Reader (PerkinElmer®, Santa Clara, Calif., USA).
(§6) IC50 values were derived from a 10-dose response curve. As shown in Tables 1-2, the addition of a linker and CRBN targeting group altered the isoform selectivity of the SAHA-based degrader compounds.

HDAC2 = biological target: T2, HDAC2 (Homo sapiens, UniProt Q92769); experiment: as above; type: biochemical
T2 construct: purchased Reaction Biology
T2 sequence (Q92769 whole entry): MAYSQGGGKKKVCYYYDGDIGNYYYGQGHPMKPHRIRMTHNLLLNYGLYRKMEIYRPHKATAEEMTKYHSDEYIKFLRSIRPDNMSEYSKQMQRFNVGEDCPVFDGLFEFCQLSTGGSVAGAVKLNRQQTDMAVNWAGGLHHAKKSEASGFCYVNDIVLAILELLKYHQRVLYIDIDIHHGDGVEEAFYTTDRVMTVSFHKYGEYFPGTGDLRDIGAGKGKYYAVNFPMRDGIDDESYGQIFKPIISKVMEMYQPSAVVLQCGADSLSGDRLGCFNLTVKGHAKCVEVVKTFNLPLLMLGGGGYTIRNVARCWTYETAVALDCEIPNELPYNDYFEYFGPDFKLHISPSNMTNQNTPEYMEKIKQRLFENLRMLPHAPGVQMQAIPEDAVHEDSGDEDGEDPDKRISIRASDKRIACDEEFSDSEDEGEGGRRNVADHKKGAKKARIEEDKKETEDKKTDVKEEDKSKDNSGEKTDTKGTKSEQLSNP
Experimental: as §1, §2, §3, §4, §5, §6

VHL = biological target: T3, VHL (Homo sapiens, UniProt P40337); experiment: Cellular VHL engagement assay (BRD4BD2-GFP / mCherry reporter cells); type: cell-based; settings: with 250 nM AT1, 5 h
T3 construct: Cells stably expressing the BRD4BD2-GFP with mCherry reporter (40) were seeded; endogenous in cells
T3 sequence (P40337 whole entry, species assumed): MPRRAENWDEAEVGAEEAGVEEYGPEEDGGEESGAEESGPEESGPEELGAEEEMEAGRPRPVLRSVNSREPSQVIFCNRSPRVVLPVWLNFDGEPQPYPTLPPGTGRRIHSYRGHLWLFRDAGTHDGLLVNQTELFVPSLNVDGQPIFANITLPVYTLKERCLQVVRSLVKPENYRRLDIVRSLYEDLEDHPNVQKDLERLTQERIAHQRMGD
Experimental: Cells stably expressing the BRD4BD2-GFP with mCherry reporter (40) were seeded at 30-50% confluency in 384-well plates with 50 μL per well of FluoroBrite™ DMEM media (Thermo Fisher Scientific, A18967) supplemented with 10% FBS a day before compound treatment. Compounds and 250 nM AT1((2S,4R)-1-(2R)-2-Acetamido-3-[[6-[2-[(6S)-4-(4-chlorophenyl)-2,3,9-trimethyl-6H-thieno[3,2-f][1,2,4]triazolo[4,3-a][1,4]diazepin-6-yl]acetamido]hexyl]thio]-3-methylbutanoyl]-4-hydroxy-N-[4-(4-methylthiazol-5-yl)benzyl)pyrrolidinine-2-carboxamide) were dispensed using a D300e Digital Dispenser (HP), normalized to 0.5% DMSO, and incubated with the cells for 5 h. The assay plate was imaged immediately using an Acumen® High Content Imager (TTP Labtech) with 488 nm and 561 nm lasers in a […] grid per well format. The resulting images were analyzed using CellProfiler™.
A series of image analysis steps (an ‘image analysis pipeline’) was constructed. First, the red and green channels were aligned and cropped to target the middle of each well (to avoid analysis of the heavily clumped cells at the edges). A background illumination function was calculated for both red and green channels of each well individually and subtracted to correct for illumination variations across the 384-well plate from various sources of error. An additional step was then applied to the green channel to suppress the analysis of large auto fluorescent artifacts and enhance the analysis of cell specific fluorescence by way of selecting for objects under a given size (30 A.U.) and with a given shape (speckles). mCherry-positive cells were then identified in the red channel by filtering for objects 8-60 pixels in diameter and by using intensity to distinguish between clumped objects. The green channel was then segmented into GFP positive and negative areas and objects were labeled as GFP positive if at least 40% of it overlapped with a GFP positive area. The fraction of GFP-positive cells/mCherry-positive cells in each well was then calculated, and the green and red images were rescaled for visualization.

HDAC3 [1] = biological target: T4, HDAC3 (Homo sapiens, UniProt O15379); experiment: HDAC enzymatic assay (Reaction Biology), fluorogenic substrate; type: biochemical; set-up: purchased Reaction Biology
Experimental: as §1, §2, §3, §4, §5, §6
Target sequence in this assay (O15379 whole entry): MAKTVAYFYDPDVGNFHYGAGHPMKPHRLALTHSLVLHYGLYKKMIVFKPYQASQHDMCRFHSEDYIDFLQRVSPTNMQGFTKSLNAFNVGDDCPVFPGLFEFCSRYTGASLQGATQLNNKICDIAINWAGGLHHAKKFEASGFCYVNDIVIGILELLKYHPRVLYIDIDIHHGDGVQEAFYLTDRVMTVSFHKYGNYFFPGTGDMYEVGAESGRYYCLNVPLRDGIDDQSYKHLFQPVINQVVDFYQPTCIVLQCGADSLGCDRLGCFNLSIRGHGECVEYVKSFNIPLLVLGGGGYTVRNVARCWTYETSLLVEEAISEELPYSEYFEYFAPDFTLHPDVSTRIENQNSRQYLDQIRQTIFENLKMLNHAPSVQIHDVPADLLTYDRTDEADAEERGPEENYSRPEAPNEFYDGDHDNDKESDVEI
Target sequence in this assay (Q9Y618 395-489 partner limits assumed): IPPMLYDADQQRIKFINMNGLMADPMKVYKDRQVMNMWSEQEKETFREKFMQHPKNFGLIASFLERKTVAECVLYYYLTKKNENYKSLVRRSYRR

HDAC6 = biological target: T5, HDAC6 (Homo sapiens, UniProt Q9UBN7); experiment: as above; type: biochemical; set-up: purchased Reaction Biology
T5 sequence (Q9UBN7 1-1215): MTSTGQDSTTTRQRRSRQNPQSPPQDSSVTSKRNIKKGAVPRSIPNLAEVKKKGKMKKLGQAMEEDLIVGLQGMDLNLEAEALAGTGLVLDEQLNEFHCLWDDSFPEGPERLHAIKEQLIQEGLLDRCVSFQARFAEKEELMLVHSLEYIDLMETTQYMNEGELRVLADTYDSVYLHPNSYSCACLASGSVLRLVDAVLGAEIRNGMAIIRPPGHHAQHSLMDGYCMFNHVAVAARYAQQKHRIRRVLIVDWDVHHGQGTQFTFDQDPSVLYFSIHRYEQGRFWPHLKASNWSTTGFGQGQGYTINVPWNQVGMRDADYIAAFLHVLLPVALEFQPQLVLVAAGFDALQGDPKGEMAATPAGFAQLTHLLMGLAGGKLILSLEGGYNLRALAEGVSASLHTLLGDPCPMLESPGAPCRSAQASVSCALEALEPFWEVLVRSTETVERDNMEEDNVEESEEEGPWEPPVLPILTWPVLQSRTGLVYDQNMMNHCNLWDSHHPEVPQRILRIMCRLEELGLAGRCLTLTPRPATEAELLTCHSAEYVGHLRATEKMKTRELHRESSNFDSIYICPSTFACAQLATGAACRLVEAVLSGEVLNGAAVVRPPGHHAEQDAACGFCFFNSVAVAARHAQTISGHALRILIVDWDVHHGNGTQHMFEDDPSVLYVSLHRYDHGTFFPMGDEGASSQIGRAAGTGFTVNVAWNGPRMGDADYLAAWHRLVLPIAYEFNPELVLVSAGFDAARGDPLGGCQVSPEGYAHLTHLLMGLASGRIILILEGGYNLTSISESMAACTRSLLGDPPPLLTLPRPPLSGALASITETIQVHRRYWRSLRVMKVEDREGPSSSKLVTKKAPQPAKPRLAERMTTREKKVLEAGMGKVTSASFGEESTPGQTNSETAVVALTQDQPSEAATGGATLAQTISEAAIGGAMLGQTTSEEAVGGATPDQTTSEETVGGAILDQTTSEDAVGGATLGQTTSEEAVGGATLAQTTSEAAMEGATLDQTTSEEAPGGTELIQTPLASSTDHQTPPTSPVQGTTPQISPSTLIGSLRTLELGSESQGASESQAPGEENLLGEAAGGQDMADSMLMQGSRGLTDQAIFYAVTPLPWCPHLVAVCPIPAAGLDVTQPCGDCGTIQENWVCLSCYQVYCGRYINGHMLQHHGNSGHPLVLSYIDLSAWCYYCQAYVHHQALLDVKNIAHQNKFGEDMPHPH
Experimental: as §1, §2, §3, §4, §5, §6

HDAC8 = biological target: T6, HDAC8 (Homo sapiens, UniProt Q9BY41); experiment: HDAC enzymatic assay (Reaction Biology), HDAC8 substrate; type: biochemical; set-up: purchased Reaction Biology
T6 sequence (Q9BY41 1-377): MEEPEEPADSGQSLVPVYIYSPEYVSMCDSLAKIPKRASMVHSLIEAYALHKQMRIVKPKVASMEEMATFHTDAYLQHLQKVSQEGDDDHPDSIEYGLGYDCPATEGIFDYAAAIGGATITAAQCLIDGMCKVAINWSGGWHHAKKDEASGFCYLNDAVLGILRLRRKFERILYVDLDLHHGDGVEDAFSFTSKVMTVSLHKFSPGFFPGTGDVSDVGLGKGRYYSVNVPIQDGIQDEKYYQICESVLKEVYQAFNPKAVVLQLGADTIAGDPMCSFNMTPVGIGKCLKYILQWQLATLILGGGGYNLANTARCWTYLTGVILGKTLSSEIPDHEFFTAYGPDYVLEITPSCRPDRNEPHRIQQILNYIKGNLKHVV
Experimental: as §1, §2
(HDAC8 only substrate: 50 μM, Arg-His-Lys(Ac)-Lys(Ac))-AMC
as §4, §5, §6

[2] = system: other identified HDAC proteins; experiment: Change in cellular protein abundance (TMT proteomics) in Kelly cells; type: cell-based, human; settings: 1 μM, 5 hours, vs DMSO
Experimental: (§7) Lysis buffer (8 M Urea, 50 mM NaCl, 50 mM 4-(2hydroxyethyl)-1-piperazineethanesulfonic acid (EPPS) pH 8.5, protease and phosphatase inhibitors from Roche®) were added to the cell pellets and homogenized by 20 passes through a 21 gauge (1.25 in. long) needle to achieve a cell lysate with a protein concentration between 1-4 mg mL-1. A micro-BCA assay (Pierce™) was used to determine the final protein concentration in the cell lysate. 200 μg of protein for each sample were reduced and alkylated as described in Donovan et al., Elife 7:e38430 (2018).
Proteins were precipitated using methanol/chloroform. Four volumes of methanol were added to the cell lysate, followed by one volume of chloroform, and finally three volumes of water. The mixture was vortexed and centrifuged to separate the chloroform phase from the aqueous phase. […]
Anhydrous ACN was added to each peptide sample to a final concentration of 30% v/v, and labeling was induced with the addition of TMT reagent to each sample at a ratio of 1:4 peptide:TMT label. […] The sample channels were combined at a 1:1:1:1:1:1:1:1:1:1:1 ratio, desalted using Cis solid phase extraction cartridges (Waters®) and analyzed by LC-MS for channel ratio comparison. Samples were then combined using the adjusted volumes determined in the channel ratio analysis and dried down in a speed vacuum. […]

HDAC3 [3] = biological target: T4, HDAC3; experiment: as above; type: cell-based; set-up: relative change in relative protein abundance with treatment of Kelly cells; endogenous in cells; host or cells: Kelly cells
Experimental: as §7
Target sequence in this assay (O15379 whole entry): as the sequence (O15379 whole entry) above
Proteins were precipitated using methanol/chloroform. Four volumes of methanol were added to the cell lysate, followed by one volume of chloroform, and finally three volumes of water. The mixture was vortexed and centrifuged to separate the chloroform phase from the aqueous phase. The precipitated protein was washed with three volumes of methanol, centrifuged and the resulting washed precipitated protein was allowed to air dry. The precipitated protein was resuspended in 4 M Urea, 50 mM HEPES pH 7.4, followed by dilution to 1 M urea with the addition of 200 mM EPPS, pH 8. Proteins were first digested with LysC (1:50; enzyme:protein) for 12 hours at room temperature. The LysC digestion was diluted to 0.5 M Urea with 200 mM EPPS pH 8 followed by digestion with trypsin (1:50; enzyme:protein) for 6 hours at 37° C. Tandem mass tag (TMT) reagents (Thermo Fisher Scientific) were dissolved in anhydrous acetonitrile (ACN) according to manufacturer's instructions.
Anhydrous ACN was added to each peptide sample to a final concentration of 30% v/v, and labeling was induced with the addition of TMT reagent to each sample at a ratio of 1:4 peptide:TMT label. The 10-plex labeling reactions were performed for 1.5 hours at room temperature and the reaction quenched by the addition of hydroxylamine to a final concentration of 0.3% for 15 minutes at room temperature. The sample channels were combined at a 1:1:1:1:1:1:1:1:1:1:1 ratio, desalted using Cis solid phase extraction cartridges (Waters®) and analyzed by LC-MS for channel ratio comparison. Samples were then combined using the adjusted volumes determined in the channel ratio analysis and dried down in a speed vacuum. The combined sample was then resuspended in 1% formic acid, and acidified (pH 2-3) before being subjected to desalting with C18 SPE (Sep-Pak®, Waters®). Samples were then offline fractionated into 96 fractions by high pH reverse-phase HPLC (Agilent® LC1260) through an aeris peptide xb-c18 column (Phenomenex®) with mobile phase A containing 5% acetonitrile and 10 mM NH4HCO3 in LC-MS grade H2O, and mobile phase B containing 90% acetonitrile and 10 mM NH4HCO3 in LC-MS grade H2O (both pH 8.0). The 96 resulting fractions were then pooled in a non-continuous manner into 24 fractions and these fractions were used for subsequent mass spectrometry analysis.
Data were collected using an Orbitrap Fusion™ Lumos™ mass spectrometer (Thermo Fisher Scientific, San Jose, Calif., USA) coupled with a Proxeon EASY-nLC™ 1200 LC pump (Thermo Fisher Scientific). Peptides were separated on an EasySpray™ ES803 75 μm inner diameter microcapillary column (ThermoFisher Scientific).
Each analysis used an MS3-based TMT method as described previously. The data were acquired using a mass range of m z 340-1350, resolution 120,000, automatic gain control (AGC) target 1×10^6, maximum injection time 100 ms, dynamic exclusion of 120 seconds for the peptide measurements in the Orbitrap Fusion™ Lumos™ mass spectrometer. Data dependent MS2 spectra were acquired in the ion trap with a normalized collision energy (NCE) set at 55%, AGC target set to 1.5×10^5 and a maximum injection time of 150 ms. […]

T1 sequence (Q13547 whole entry): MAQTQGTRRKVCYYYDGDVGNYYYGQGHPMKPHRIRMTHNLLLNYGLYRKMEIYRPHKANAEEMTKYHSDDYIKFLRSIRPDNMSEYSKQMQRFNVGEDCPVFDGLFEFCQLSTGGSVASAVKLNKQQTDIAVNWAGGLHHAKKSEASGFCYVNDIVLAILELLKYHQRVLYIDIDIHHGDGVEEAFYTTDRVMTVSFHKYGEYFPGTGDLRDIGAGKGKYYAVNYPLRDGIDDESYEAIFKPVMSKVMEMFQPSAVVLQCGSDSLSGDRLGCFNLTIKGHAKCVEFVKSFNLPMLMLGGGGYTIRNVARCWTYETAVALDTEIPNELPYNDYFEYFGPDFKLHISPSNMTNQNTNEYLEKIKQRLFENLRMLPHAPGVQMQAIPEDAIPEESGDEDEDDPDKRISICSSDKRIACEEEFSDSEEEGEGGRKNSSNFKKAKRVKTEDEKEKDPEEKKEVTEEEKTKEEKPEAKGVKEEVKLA

Cc1ncsc1-c1ccc([C@H](C)NC(=O)[C@@H]2C[C@@H](O)CN2C(=O)[C@@H](NC(=O)CCOCCN(CCc2c[nH]c3ccccc23)Cc2ccc(/C=C/C(=O)Nc3ccccc3N)cc2)C(C)(C)C)cc1 [Compound 9, (2S,4R)-1-((S)-2-(3-(2-((2-(1H-indol-3-yl)ethyl)(4-((E)-3-((2-aminophenyl)amino)-3-oxoprop-1-en-1-yl)benzyl)amino)ethoxy)propanamido)-3,3-dimethylbutanoyl)-4-hydroxy-N—((S)-1-(4-(4-methylthiazol-5-yl)phenyl)ethyl)pyrrolidine-2-carboxamide] was tested, and the “inhibition of HDAC1 deacetylase activity in vitro (in words)” value (HDAC1) was “moderate inhibition”, the IC50 (HDAC1; 10-dose response curve, read-out: Compound IC50 (M), HDAC1) was 9.5e-06 M and the “inhibition of HDAC2 deacetylase activity in vitro (in words)” value (HDAC2) was “moderate inhibition”. For the same molecule, the IC50 (HDAC2; 10-dose response curve, read-out: Compound IC50 (M), HDAC2) was 1.15e-05 M, the IC50 (VHL) was 298 µM and the “inhibition of HDAC3 deacetylase activity in vitro (in words)” value (HDAC3 [1]) was “moderate inhibition”. For the same molecule, the IC50 (HDAC3 [1]; 10-dose response curve, read-out: Compound IC50 (M), HDAC3) was 1.12e-05 M, the “inhibition of HDAC6 activity in vitro (in words)” value (HDAC6) was “did not inhibit” and the “inhibition of HDAC8 deacetylase activity in vitro (in words)” value (HDAC8) was “did not inhibit”.
With Cc1ncsc1-c1ccc([C@H](C)NC(=O)[C@@H]2C[C@@H](O)CN2C(=O)[C@@H](NC(=O)CCOCCN(CCc2c[nH]c3ccccc23)Cc2ccc(/C=C/C(=O)NO)cc2)C(C)(C)C)cc1 [Compound 1, (2S,4R)-1-((S)-2-(3-(2-((2-(1H-indol-3-yl)ethyl)(4-((E)-3-(hydroxyamino)-3-oxoprop-1-en-1-yl)benzyl)amino)ethoxy)propanamido)-3,3-dimethylbutanoyl)-4-hydroxy-N—((S)-1-(4-(4-methylthiazol-5-yl)phenyl)ethyl)pyrrolidine-2-carboxamide] the “cellular protein levels of the other identified HDAC proteins (heat map FIG. 2)” value [2] was “did not affect”, the IC50 (VHL) was 16.9 µM and the “cellular HDAC3 protein levels, change in relative protein abundance (heat map FIG. 2)” value (HDAC3 [3]; 1 μM, 5 hours, vs DMSO) was “down-regulation”. The “HDAC3 protein levels, relative protein abundance compared to DMSO control” value (HDAC3 [3]; scatter plots FIG. 1 and FIG. 3) was “significant and selective reduction”.
